Values quoted from earlier work, collected in patent US9180194B2, “Method and composition for transdermal drug delivery” (Acrux DDS Pty Ltd, priority 2005, dated 2015).

Settings: continuous trans-scrotal delivery

C[C@]12CC[C@H]3[C@@H](CCC4=CC(=O)CC[C@@]43C)[C@@H]1CC[C@@H]2O [testosterone]
levels of DHT and DHT/testosterone ratios relative to normal: 4 to 5 fold
